Measurements published in US4257962A, “Derivatives of bicyclic lactols” (Chinoin Gyogyszer es Vegyeszeti Termekek Gyara Rt., priority 1977, dated 1981).

Assay: Acute toxicity (LD50) in mice
Settings: mouse, in vivo

## CCCCCOC1C[C@@H]2[C@@H](/C=C/[C@H](O)CCCCC)[C@H](O)C[C@@H]2O1 (single isomer, unassigned; (-)) [(-)-2,3,3aβ,6aβ-Tetrahydro-2-pentyloxy-5α-hydroxy-4β-(3β-hydroxy-oct-1-trans-enyl)-cyclopentano[b]furan]
  LD50: 700 mg/kg
